Data taken from ChEMBL document CHEMBL1151951, “Brartemicin, an inhibitor of tumor cell invasion from the actinomycete Nonomuraea sp” (J Nat Prod, 2009).
The source made the active and inactive calls. The rule behind the calls is not given here.

Tests used:
[1] = Antiinvasive activity against mouse 26-L5 cells; type: functional, cell-based
[2] = species on record: Mus musculus; experiment: Cytotoxicity against mouse 26-L5 cells at 10 ug/ml; type: functional, cell-based
[3] = species on record: Mus musculus; experiment: Antiinvasive activity against mouse 26-L5 cells assessed as inhibition of cell migration; type: functional, cell-based
[4] = Antiinvasive activity against mouse 26-L5 cells at 1 ug/ml; type: functional

IC50 [1]	Structure (SMILES)	Activity [2]	Activity [3]	Activity [4]
390 nM	Cc1cc(O)cc(O)c1C(=O)OC[C@H]1O[C@H](O[C@H]2O[C@H](COC(=O)c3c(C)cc(O)cc3O)[C@@H](O)[C@H](O)[C@H]2O)[C@H](O)[C@@H](O)[C@@H]1O [BRARTEMICIN]	Not toxic	inactive	59%
–	O=C(OC[C@H]1O[C@H](O[C@H]2O[C@H](COC(=O)c3ccccc3)[C@@H](O)[C@H](O)[C@H]2O)[C@H](O)[C@@H](O)[C@@H]1O)c1ccccc1	–	–	51%
–	O=C(OC[C@H]1O[C@H](O[C@H]2O[C@H](COC(=O)c3ccccc3O)[C@@H](O)[C@H](O)[C@H]2O)[C@H](O)[C@@H](O)[C@@H]1O)c1ccccc1O	–	–	35%
–	O=C(OC[C@H]1O[C@H](O[C@H]2O[C@H](COC(=O)c3cccc(O)c3O)[C@@H](O)[C@H](O)[C@H]2O)[C@H](O)[C@@H](O)[C@@H]1O)c1cccc(O)c1O	–	–	40%
